Numbering of substitutions follows the chain as printed.
What was measured:
Assay in all cases: fluorescence titration of rhodamine-labelled protein
[1] = target: T1, rho-PBP: (A17C,A197C)PBP labeled with 6-IATR (PstS phosphate binding protein) (Escherichia coli, UniProt P0AG82, A222C/A42C/S63A)
T1 sequence (P0AG82 26-346 A42C/S63A/A222C): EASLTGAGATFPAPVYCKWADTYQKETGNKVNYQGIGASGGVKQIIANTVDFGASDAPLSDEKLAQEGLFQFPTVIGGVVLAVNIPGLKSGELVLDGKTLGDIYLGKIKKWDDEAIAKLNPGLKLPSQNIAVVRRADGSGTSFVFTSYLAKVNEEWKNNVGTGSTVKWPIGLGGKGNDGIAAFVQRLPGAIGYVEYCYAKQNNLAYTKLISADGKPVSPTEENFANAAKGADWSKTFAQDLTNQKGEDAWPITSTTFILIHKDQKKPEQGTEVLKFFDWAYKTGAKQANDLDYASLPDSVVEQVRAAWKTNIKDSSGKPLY

[2] = target: T2, rho-PBP: (A17C,A197C)PBP labeled with 6-IATR (PstS phosphate binding protein) (Escherichia coli, UniProt P0AG82, A222C/A42C/T35A)
T2 sequence (P0AG82 26-346 T35A/A42C/A222C): T1 sequence (P0AG82 26-346 A42C/S63A/A222C) with T10A, A38S

[3] = target: T3, rho-PBP: (A17C,A197C)PBP labeled with 6-IATR (PstS phosphate binding protein) (Escherichia coli, UniProt P0AG82, A222C/A42C/G165A/S189K/S64D)
T3 sequence (P0AG82 26-346 A42C/S64D/G165A/S189K/A222C): T1 sequence (P0AG82 26-346 A42C/S63A/A222C) with A38S, S39D, G140A, S164K

[4] = target: T4, rho-PBP: (A17C,A197C)PBP labeled with 6-IATR (PstS phosphate binding protein) (Escherichia coli, UniProt P0AG82, A222C/A42C/G165A)
T4 sequence (P0AG82 26-346 A42C/G165A/A222C): T1 sequence (P0AG82 26-346 A42C/S63A/A222C) with A38S, G140A

[5] = target: T5, rho-PBP: (A17C,A197C)PBP labeled with 6-IATR (PstS phosphate binding protein) (Escherichia coli, UniProt P0AG82, A222C/A42C/R160A)
T5 sequence (P0AG82 26-346 A42C/R160A/A222C): T1 sequence (P0AG82 26-346 A42C/S63A/A222C) with A38S, R135A

[6] = target: T6, (K229C,E302C)PBP labeled with 6-IATR (PstS phosphate binding protein) (Escherichia coli, UniProt P0AG82, E327C/G165A/K254C)
T6 sequence (P0AG82 26-346 G165A/K254C/E327C): T1 sequence (P0AG82 26-346 A42C/S63A/A222C) with C17A, A38S, G140A, C197A, K229C, E302C

Structure (SMILES): O=P(O)(O)O [inorganic phosphate]
- Kd [1]: 68 ± 9 µM
- Kd [2]: 32 ± 2 µM
- Kd [3]: 40 ± 4 µM
- Kd [4]: 70 ± 17 µM
- Kd [5]: < 1 µM
- Kd [6]: 220 ± 11 µM

From publication PMC4741387 (Biochemistry, 2015)
